{"source": "patent US10842892B2", "about": "“Methods and apparatus for synthesizing imaging agents, and intermediates thereof” (Lantheus Medical Imaging, Inc., priority 2010, dated 2020)", "key": {"[1]": {"tested_on": "viable left ventricle", "experiment": "left ventricular viability after myocardial infarction, imaging agent 1 versus FDG", "type": "in vivo, rat", "description": "MI was induced in rats by 30 minutes of\\ coronary occlusion followed reperfusion. […] Viable left ventricle was quantified in images as the volume with ≥50% of maximum activity."}, "[2]": {"tested_on": "healthy adults", "experiment": "radiation dosimetry after single injection at rest (OLINDA/EXM, MIRD)", "type": "in vivo, human", "description": "This was a non-randomized, open-label, single-dose study. A total of 13 healthy adult subjects were enrolled and administered a single dose of imaging agent 1 at a single study center in the United States. Subjects were screened within 14 days prior to enrollment to confirm subject eligibility, and began baseline assessments at the study center the day before study drug administration. Subjects remained at the study center until completion of the Study Day 2 safety assessments (24±8 hours post-dose). A telephone call was made to study subjects 48±8 hours post-dose for adverse event (AE) monitoring. All subjects returned to the study center approximately one week (5-7 days) post-dose for a follow-up safety visit, and were contacted by telephone approximately 14-17 days post-dose for final serious AE monitoring.\nOn day 1, each subject received a 1-3 mL intravenous bolus injection of imaging agent 1 in a sterile solution of ≤5% ethanol containing ≤50 mg/mL sodium ascorbate in water, calculated to deliver approximately the target dose of imaging agent 1 at the time of injection. The dose was administered in less than 10 seconds, followed immediately by a 3-5 mL saline flush.\nDosimetry analyses. Estimates of radiation dosimetry for the standard organs of the adult male and female models and for the, salivary glands as well as the effective dose equivalent (EDE) (International Commission on Radiological Protection (ICRP), Recommendations of the International Commission on Radiological Protection, Publication 26. Ann ICRP. 1977; 1(3)) and the effective dose (ED) (International Commission on Radiological Protection (ICRP), 1990 Recommendations of the International Commission on Radiological Protection, 60. Ann ICRP. 1990; 21(1-3)) were determined using the OLINDA/EXM software (Stabin, M G, Sparks, R B, et al, OLINDA/EXM: the second-generation personal computer software for internal dose assessment in nuclear medicine.” J Nucl Med 2005 46(6):1023-7) Assessment of radiation dosimetry was based on the MIRD method, with data derived from imaging studies, using methods consistent with MIRD Pamphlet no. 16 (Siegel J A, Thomas S R, Stubbs J B, et al. MIRD pamphlet no. 16: Techniques for quantitative radiopharmaceutical biodistribution data acquisition and analysis for use in human radiation dose estimates. J Nucl Med. 1999 February; 40(2):37S-61S).\nThe attenuation corrected transverse image data slice planes were combined into a single three-dimensional image matrix for each subject and each time point using custom software. These images were then divided into 6 image sets (“anterior”, “posterior”, “salivary”, “thyroid”, “source”, and “full”) of combined coronal plane image data for each subject at each time point, grouping organs with similar anterior to posterior depths. This was done to optimize the ROI creation, and minimize background contribution to the organs contained in each combined coronal plane image. The “anterior” images contained stomach wall, heart wall, and urinary bladder. The “posterior” images contained kidneys, lumbar spine, and spleen (when visible). The “salivary” images contained the salivary glands (parotid and submandibular). The “thyroid” images contained the thyroid. The “full” images combined all of the coronal image planes that contained subject image data and was used for quantification of the brain and liver. The “source” images contained the calibration source.\nAbsolute radioactivity was determined by normalizing ROI sums by a calibration factor derived from the calibration source. Region counts were also adjusted for activity containing underlying and overlying tissue that was not part of the organ or tissue being quantified by utilization of background regions of interest. Total body region counts were also corrected for off body background counts. Appropriate normalization of region sizes for organ and adjacent regions were made. […]"}, "[3]": {"settings": "N = 12, Void Interval = 3.5 hours"}}, "note": "Where “and” joins values, the source holds several entries; their conditions need not be identical. Equal values may be shown once."}
{"smiles": "CC(C)(C)n1ncc(OCc2ccc(COCC[18F])cc2)c(Cl)c1=O", "note": "[imaging agent 1, 2-t-butyl-4-chloro-5-[4-(2-(^18F)fluoroethoxymethyl)-benzyloxy]-2H-pyridazin-3-1]", "values": [{"measurement": "left ventricular volume", "setting": "[1]; control rats before surgery", "value": "1.17±0.04", "unit": "cm3"}, {"measurement": "viable left ventricular tissue volume", "setting": "[1]; early stage MI (two days post surgery)", "value": "0.94±0.01", "unit": "cm3"}, {"measurement": "viable left ventricular tissue volume", "setting": "[1]; late stage MI (four weeks post surgery)", "value": "1.18±0.04", "unit": "cm3"}, {"measurement": "mean ED", "setting": "[2]; N = 12", "value": 0.072, "unit": "rem/mCi"}, {"measurement": "mean absorbed dose, heart wall", "setting": "[2]; N = 12", "value": 0.18, "unit": "rem/mCi"}, {"measurement": "mean absorbed dose, kidneys (critical organ)", "setting": "[2]; N = 12", "value": 0.24, "unit": "rem/mCi"}, {"measurement": "ED, Mean", "setting": "[2]; [3]", "value": "0.019 mSv/MBq and 1.9E−02 mSv/MBq"}, {"measurement": "EDE, Mean", "setting": "[2]; [3]", "value": "2.2E−02", "unit": "mSv/MBq"}, {"measurement": "absorbed dose estimate, Mean, Brain", "setting": "[2]; [3]", "value": "2.5E−02", "unit": "mSv/MBq"}, {"measurement": "absorbed dose estimate, Mean, Breasts", "setting": "[2]; [3]", "value": "8.8E−03", "unit": "mSv/MBq"}, {"measurement": "absorbed dose estimate, Mean, Gallbladder Wall", "setting": "[2]; [3]", "value": "1.7E−02", "unit": "mSv/MBq"}, {"measurement": "absorbed dose estimate, Mean, Heart Wall", "setting": "[2]; [3]", "value": "0.048 mSv/MBq and 4.8E−02 mSv/MBq"}, {"measurement": "absorbed dose estimate, Mean, Kidneys", "setting": "[2]; [3]", "value": "0.066 mSv/MBq and 6.6E−02 mSv/MBq"}, {"measurement": "absorbed dose estimate, Mean, LLI Wall", "setting": "[2]; [3]", "value": "1.2E−02", "unit": "mSv/MBq"}, {"measurement": "absorbed dose estimate, Mean, Liver", "setting": "[2]; [3]", "value": "3.9E−02", "unit": "mSv/MBq"}, {"measurement": "absorbed dose estimate, Mean, Lungs", "setting": "[2]; [3]", "value": "1.1E−02", "unit": "mSv/MBq"}, {"measurement": "absorbed dose estimate, Mean, Muscle", "setting": "[2]; [3]", "value": "1.0E−02", "unit": "mSv/MBq"}, {"measurement": "absorbed dose estimate, Mean, Osteogenic Cells", "setting": "[2]; [3]", "value": "1.9E−02", "unit": "mSv/MBq"}, {"measurement": "absorbed dose estimate, Mean, Ovaries", "setting": "[2]; [3]", "value": "1.2E−02", "unit": "mSv/MBq"}, {"measurement": "absorbed dose estimate, Mean, Pancreas", "setting": "[2]; [3]", "value": "1.6E−02", "unit": "mSv/MBq"}, {"measurement": "absorbed dose estimate, Mean, Red Marrow", "setting": "[2]; [3]", "value": "1.6E−02", "unit": "mSv/MBq"}, {"measurement": "absorbed dose estimate, Mean, Salivary", "setting": "[2]; [3]", "value": "3.5E−02", "unit": "mSv/MBq"}, {"measurement": "absorbed dose estimate, Mean, Skin", "setting": "[2]; [3]", "value": "7.9E−03", "unit": "mSv/MBq"}, {"measurement": "absorbed dose estimate, Mean, Small Intestine", "setting": "[2]; [3]", "value": "1.3E−02", "unit": "mSv/MBq"}, {"measurement": "absorbed dose estimate, Mean, Spleen", "setting": "[2]; [3]", "value": "1.6E−02", "unit": "mSv/MBq"}, {"measurement": "absorbed dose estimate, Mean, Stomach Wall", "setting": "[2]; [3]", "value": "4.0E−02", "unit": "mSv/MBq"}, {"measurement": "absorbed dose estimate, Mean, Testes", "setting": "[2]; [3]", "value": "9.2E−03", "unit": "mSv/MBq"}, {"measurement": "absorbed dose estimate, Mean, Thymus", "setting": "[2]; [3]", "value": "1.1E−02", "unit": "mSv/MBq"}, {"measurement": "absorbed dose estimate, Mean, Thyroid", "setting": "[2]; [3]", "value": "3.2E−02", "unit": "mSv/MBq"}, {"measurement": "absorbed dose estimate, Mean, Total Body", "setting": "[2]; [3]", "value": "1.2E−02", "unit": "mSv/MBq"}, {"measurement": "absorbed dose estimate, Mean, ULI Wall", "setting": "[2]; [3]", "value": "1.3E−02", "unit": "mSv/MBq"}, {"measurement": "absorbed dose estimate, Mean, Urinary Bladder Wall", "setting": "[2]; [3]", "value": "2.3E−02", "unit": "mSv/MBq"}, {"measurement": "absorbed dose estimate, Mean, Uterus", "setting": "[2]; [3]", "value": "1.2E−02", "unit": "mSv/MBq"}, {"measurement": "maximum injected dose without exceeding 1 rem ED", "setting": "[2]; in vivo", "value": 14, "unit": "mCi"}, {"measurement": "maximum injected dose without exceeding 10 mSv (1 rem) ED", "setting": "[2]; in vivo", "value": 521, "unit": "MBq"}, {"measurement": "maximum injected dose without exceeding 50 mSv to the critical organ", "setting": "[2]; kidneys", "value": 770, "unit": "MBq"}]}
